Data on four compounds can be found in patent publication US20230416329A1, “A PEPTIDE WITH DISULFIDE BONDS AND INHIBITORY ACTIVITY AGAINST SERINE PROTEASES, DERIVED HYBRID PEPTIDES THEREOF, AND USES THEREOF” (INSTITUTE OF MATERIA MEDICA , CHINESE ACADEMY OF MEDICAL …, priority 2020, published 2023).

In series [1] the target is elastase (Sus scrofa, UniProt P00772). The experiment in a line: in vitro. As to conditions: for remaining at 0.025 h, 60 μM / remaining at 0.05 h, 60 μM / remaining at 0.075 h, 60 μM / remaining at 0.1 h, 60 μM / remaining at 0.15 h, 60 μM / remaining at 0.25 h, 60 μM / remaining at 0.5 h, 60 μM / remaining at 1 h, 60 μM: pH 8, Remaining peak area (%)/elastase. How it is done: FIG. 19. […] At different time point, 25 μL aliquots was taken out, and 10% (v/v) TFA was added to terminate the reaction.
(§1) Mix by centrifugation at 8000 rpm for 30 seconds.
Arrange a certain volume of 0.5 μg/μL elastase solution in another sterile EP. Incubate the EP tubes containing peptides and enzymes at 37° C. for 5 min, and then add 4.5 μL of elastase solution to each EP tube containing peptides and mix well. Start timing and remove 25 μL of reaction solution at 1.5, 3.0, 4.5, 6.0, 9.0, 15.0, 30.0, and 60.0 min later, respectively. Add 3.75 μL of 10% TFA to terminate the reaction and mix well by centrifugation at 8000 rpm for 30 seconds.
Referring to the experimental method in Example 5, in vitro stability of salmon Calcitonin analogs with oral administration activity to the enzymatic hydrolysis by trypsin, chymotrypsin and elastase were performed.
Referring to the experimental method in Example 5, in vitro stability of IL-17A inhibitory peptides towards the enzymatic hydrolysis by trypsin, chymotrypsin and elastase were performed.

Series [2] in a line: Stability of GLP-1 and its analogues in human serum. The conditions noted are these: 25% (v/v) human serum; for Remaining peak area (%)/human serum: 0.0 h, peptide 0.03 mM, 37° C.; for remaining at 0.5 h, 0.03 mM / remaining at 2 h, 0.03 mM / remaining at 4 h, 0.03 mM / remaining at 8 h, 0.03 mM / remaining at 12 h, 0.03 mM: human, pH 7.
Description: The amount of the prototype peptide at 0 h was taken as 100%. At different time point, 100 μL aliquots was taken out, and 300 μL precooled anhydrous methanol was added to terminate the reaction. The remaining percentage (%) of the peptide relative to the prototype peptide at that time point was analyzed by reverse phase high performance liquid chromatography. The experiment was performed with three replicates, and data were expressed as “mean±standard deviation”. The sample was subjected to high-speed centrifugation, supernatant extraction, and freeze drying, followed by dissolution in 50% (v/v) methanol/water solution, and analyzed by reverse phase high performance liquid chromatography. The experiment was performed with three replicates, and data were expressed as “mean±standard deviation”.
Invert and mix thoroughly, then leave at −20° C. overnight. At the same time, take three sterile EP tubes and add 25 μL of human serum, 75 μL of 50 mM Tris-HCl buffer (pH7.0), and 300 μL of pre-cold absolute methanol. Invert and mix thoroughly, then leave at −20° C. overnight as a negative control, so as to eliminate the interference of proteins or peptides contained in human serum at the peak time of the target peptide after methanol precipitation.
Arrange a certain volume of human serum in another sterile EP. Incubate the EP tubes containing peptides and serum at 37° C. for 10 min, and add 137.5 μL of human serum to each EP tube containing peptides and mix well. […] Start timing and remove 100 μL of reaction solution at 0.5, 2.0, 4.0, 8.0, and 12.0 h later, respectively. Add 300 μL of pre-cold absolute methanol. Invert and mix thoroughly, then leave at −20° C. overnight. […] There are three replicates at each time point, and the peak area of the peptide at each time point is detected using reverse phase high-performance liquid chromatography (RP-HPLC). The ratio of the remaining peak area of the sample at detection time T (h) to the peak area of the prototype peptide at 0 h is calculated as the remaining percentage (%) of the peptide.
Series [3] addresses DPP-IV (Homo sapiens, UniProt P27487). As to the kind of experiment: Tolerance of GLP-1 and its analogues to DPP-IV (RP-HPLC remaining peak area). Format: in vitro ADME. The conditions noted are these: peptide 25 μM, DPP-IV 0.5 ng/μL, 37° C.; for Remaining peak area (%)/DPP-IV: 0.0 h; for remaining at 0.5 h, 25 μM / remaining at 2 h, 25 μM / remaining at 4 h, 25 μM / remaining at 8 h, 25 μM / remaining at 12 h, 25 μM: isolated DPP-IV enzyme in buffer, pH 8. The method, then:
as §1
(2) Arrange a certain volume of 0.005 μg/μL DPP-IV solution in another sterile EP.

The target of series [4] is chymotrypsin (Bos taurus, UniProt P00766). The experiment in a line: Stability of hybrid peptides (GLP-1, PCSK9, calcitonin, 17A analogues) against chymotrypsin hydrolysis (RP-HPLC remaining peak area). The method, boiled down:
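Peptide and 0.05 μg/μL chymotrypsin were preincubated at 37 °C for 5 min, then mixed. Aliquots taken from 1.5 up to 60.0 min were quenched with 10% TFA, and remaining peptide was measured as RP-HPLC peak area.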

In series [5] the target is NEP24.11 (Homo sapiens, UniProt P08473). The experiment in a line: Tolerance of GLP-1 and its analogues to NEP24.11 (RP-HPLC remaining peak area). The series is classed as in vitro ADME. As to conditions: after 8 hours. How it is done:
as §1
Arrange a certain volume of 0.04 μg/μL NEP24.11 enzyme solution in another sterile EP.

Series [6] addresses T1, interaction of PCSK9-LDLR (Homo sapiens, UniProt Q8NBP7).
T1 construct: purchased MBL Company, Beijing, China CY-8150
The experiment in a line: PCSK9-LDLR in vitro binding assay (inhibitory rate). As to conditions: sample 50 μM, PCSK9 75 ng/mL. The method, then: Polypeptide PCSK9_1-14 (SEQ ID NOs: 210-223) is dissolved in pure water or DMSO. 85 μL reaction buffer, 5 μL 1 mM polypeptide sample and 10 μL 750 ng/mL PCSK9 protein was pre-incubated at room temperature for 20 minutes before being added to a 96 well plate. The OD450/540 nm value was measured according to the instructions of the PCSK9-LDLR in Vitro Binding Assay Kit (CY-8150, MBL Company, Beijing, China). Solvent control: replace polypeptide with 5 μL solvent. In 100 μL reaction system, the final concentration of the polypeptide and PCSK9 is 50 μM and 75 ng/mL, respectively.
Inhibition rate of polypeptide (%)=(OD450/540 nm(solvent control)−OD450/540 nm (sample))/OD450/540 nm(solvent control)×100

The mark [7] stands for this setting: isolated enzyme elastase, 1 h, 60 μM, pH 8.

Bridge positions count the residues as written; N and C are the ends. Ends that are not written are not given here.

Sequence of elastase (P00772 27-266): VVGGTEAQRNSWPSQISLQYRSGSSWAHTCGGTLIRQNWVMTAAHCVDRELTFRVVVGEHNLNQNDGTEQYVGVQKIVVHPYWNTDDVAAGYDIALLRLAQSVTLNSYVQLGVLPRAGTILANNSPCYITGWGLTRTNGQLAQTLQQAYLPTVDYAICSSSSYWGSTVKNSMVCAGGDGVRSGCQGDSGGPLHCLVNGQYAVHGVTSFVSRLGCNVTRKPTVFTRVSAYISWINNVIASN
Sequence of DPP-IV (P27487 whole entry, species assumed): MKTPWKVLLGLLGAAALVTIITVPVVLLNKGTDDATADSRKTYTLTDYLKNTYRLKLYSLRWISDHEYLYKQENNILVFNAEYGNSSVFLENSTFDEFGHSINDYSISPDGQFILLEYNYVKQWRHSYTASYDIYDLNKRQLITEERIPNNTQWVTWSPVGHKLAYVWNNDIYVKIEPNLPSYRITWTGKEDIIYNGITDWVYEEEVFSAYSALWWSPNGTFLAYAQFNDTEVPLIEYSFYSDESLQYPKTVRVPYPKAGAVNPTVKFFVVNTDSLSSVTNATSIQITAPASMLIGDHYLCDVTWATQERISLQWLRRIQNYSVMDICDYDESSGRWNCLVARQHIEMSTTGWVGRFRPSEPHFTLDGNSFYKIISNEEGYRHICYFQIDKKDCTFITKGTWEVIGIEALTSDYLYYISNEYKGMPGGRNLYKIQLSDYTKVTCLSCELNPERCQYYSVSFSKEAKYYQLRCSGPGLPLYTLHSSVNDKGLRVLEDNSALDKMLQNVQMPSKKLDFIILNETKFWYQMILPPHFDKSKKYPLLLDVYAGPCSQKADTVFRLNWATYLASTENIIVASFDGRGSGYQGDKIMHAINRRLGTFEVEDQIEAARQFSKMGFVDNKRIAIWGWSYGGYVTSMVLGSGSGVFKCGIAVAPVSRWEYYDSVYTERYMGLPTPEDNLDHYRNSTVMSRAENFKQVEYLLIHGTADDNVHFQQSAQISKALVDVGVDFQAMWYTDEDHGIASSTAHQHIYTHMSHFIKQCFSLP
Sequence of NEP24.11 (P08473 whole entry): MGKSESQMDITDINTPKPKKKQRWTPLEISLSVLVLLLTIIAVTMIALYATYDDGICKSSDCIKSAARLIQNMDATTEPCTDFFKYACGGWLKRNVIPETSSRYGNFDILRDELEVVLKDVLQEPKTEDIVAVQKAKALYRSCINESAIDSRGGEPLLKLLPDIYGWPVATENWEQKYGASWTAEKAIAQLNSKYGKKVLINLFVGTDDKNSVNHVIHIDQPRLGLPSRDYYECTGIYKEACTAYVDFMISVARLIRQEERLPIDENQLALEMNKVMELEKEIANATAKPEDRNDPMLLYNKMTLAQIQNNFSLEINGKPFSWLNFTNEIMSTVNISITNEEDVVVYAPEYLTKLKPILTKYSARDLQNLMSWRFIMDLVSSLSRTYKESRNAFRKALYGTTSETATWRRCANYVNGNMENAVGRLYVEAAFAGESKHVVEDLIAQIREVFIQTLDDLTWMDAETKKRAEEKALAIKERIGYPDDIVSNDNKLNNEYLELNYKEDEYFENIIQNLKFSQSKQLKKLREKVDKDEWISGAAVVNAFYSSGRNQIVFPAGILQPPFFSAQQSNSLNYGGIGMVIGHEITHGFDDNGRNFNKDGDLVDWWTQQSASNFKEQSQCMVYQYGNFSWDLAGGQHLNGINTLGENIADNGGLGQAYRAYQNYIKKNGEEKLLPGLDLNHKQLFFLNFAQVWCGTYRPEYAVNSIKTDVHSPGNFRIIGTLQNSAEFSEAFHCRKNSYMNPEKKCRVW

For the compound `CC[C@H](C)[C@H](NC(=O)[C@H](Cc1ccccc1)NC(=O)[C@H](CCC(=O)O)NC(=O)[C@H](CCCCN)NC(=O)[C@H](C)NC(=O)[C@H](C)NC(=O)[C@H](CCC(N)=O)NC(=O)CNC(=O)[C@H](CCC(=O)O)NC(=O)[C@H](CC(C)C)NC(=O)[C@H](Cc1ccc(O)cc1)NC(=O)[C@H](CO)NC(=O)[C@H](CO)NC(=O)[C@@H](NC(=O)[C@H](CC(=O)O)NC(=O)[C@H](CO)NC(=O)[C@@H](NC(=O)[C@H](Cc1ccccc1)NC(=O)[C@@H](NC(=O)CNC(=O)[C@H](CCC(=O)O)NC(=O)[C@H](C)NC(=O)[C@H](Cc1c[nH]cn1)NC(=O)CNC(=O)CNC(=O)[C@@H](NC(=O)[C@@H]1CCCN1C(=O)[C@@H](NC(=O)CN)[C@@H](C)CC)[C@@H](C)CC)[C@@H](C)O)[C@@H](C)O)C(C)C)C(=O)N[C@@H](C)C(=O)N[C@@H](Cc1c[nH]c2ccccc12)C(=O)N[C@@H](CC(C)C)C(=O)N[C@H](C(=O)N[C@@H](CCCCN)C(=O)NCC(=O)N[C@@H](CCCNC(=N)N)C(=O)NCC(=O)NCC(=O)N[C@@H](CCCCN)C(=O)NCC(=O)N[C@@H](CC(C)C)C(=O)N[C@H]1CSSC[C@@H](C(=O)N[C@@H](CCC(N)=O)C(=O)O)NC(=O)[C@H]([C@@H](C)CC)NC(=O)[C@@H]2CCCN2C(=O)[C@@H]2CCCN2C(=O)[C@H]([C@@H](C)CC)NC(=O)[C@H](CO)NC(=O)[C@H](C)NC(=O)[C@H]([C@@H](C)O)NC1=O)C(C)C` [D-GLP-1-EC12], the “Remaining peak area (%)/elastase” value in series [1] (setting [7]) is listed as “about 45%”. Besides, in series [1] (isolated enzyme elastase), the amount remaining at 0.025 h, 60 μM is 93.2 ± 2.4%; the amount remaining at 0.05 h, 60 μM was found to be 88.9 ± 1.6%; the share remaining at 0.075 h, 60 μM stood at 83.3 ± 1%; the share remaining at 0.1 h, 60 μM is 82.7 ± 4.6%. In addition, in series [1] (isolated enzyme elastase), the amount remaining at 0.15 h, 60 μM stood at 79.8 ± 2.2%; the fraction remaining at 0.25 h, 60 μM came out at 72.5 ± 1.6%; the fraction remaining at 0.5 h, 60 μM came to 66.1 ± 2.1%; the share remaining at 1 h, 60 μM came out at 49.5 ± 1.1%. In series [2], the “Remaining peak area (%)/human serum” value was found to be 100.0 ± 0.0%; the “serum stability (in words)” value is listed as “more stable in serum”; the amount remaining at 0.5 h, 0.03 mM amounted to 86.9 ± 3.8%; the fraction remaining at 2 h, 0.03 mM worked out at 79.9 ± 6.2%. Further, in series [2], the amount remaining at 4 h, 0.03 mM amounted to 73.9 ± 1.6%; the amount remaining at 8 h, 0.03 mM was found to be 72.9 ± 8.2%; the amount remaining at 12 h, 0.03 mM amounted to 53.5 ± 3.7%. For the same compound, in series [3], the “Remaining peak area (%)/DPP-IV” value is 100.0 ± 0.0%; the share remaining at 0.5 h, 25 μM came out at 93.4 ± 0.8%; the amount remaining at 2 h, 25 μM is 92.3 ± 3%; the amount remaining at 4 h, 25 μM worked out at 91.7 ± 0.6%. Besides, in series [3], the fraction remaining at 8 h, 25 μM was 93.3 ± 0.2% and the share remaining at 12 h, 25 μM was found to be 95.1 ± 1.4%.

Turning to `CC[C@H](C)[C@H](NC(=O)[C@H](Cc1ccccc1)NC(=O)[C@H](CCC(=O)O)NC(=O)[C@H](CCCCN)NC(=O)[C@H](C)NC(=O)[C@H](C)NC(=O)[C@H](CCC(N)=O)NC(=O)CNC(=O)[C@H](CCC(=O)O)NC(=O)[C@H](CC(C)C)NC(=O)[C@H](Cc1ccc(O)cc1)NC(=O)[C@H](CO)NC(=O)[C@H](CO)NC(=O)[C@@H](NC(=O)[C@H](CC(=O)O)NC(=O)[C@H](CO)NC(=O)[C@@H](NC(=O)[C@H](Cc1ccccc1)NC(=O)[C@@H](NC(=O)CNC(=O)[C@H](CCC(=O)O)NC(=O)[C@H](C)NC(=O)[C@H](Cc1c[nH]cn1)NC(=O)CNC(=O)CNC(=O)[C@@H](NC(=O)[C@@H]1CCCN1C(=O)[C@@H](NC(=O)CNC(=O)CNC(=O)[C@H](Cc1ccc(O)cc1)NC(=O)[C@@H]1CSSC[C@H](NC(=O)[C@@H](N)CC(C)C)C(=O)N[C@@H]([C@@H](C)O)C(=O)N[C@@H](C)C(=O)N[C@@H](CO)C(=O)N[C@@H]([C@@H](C)CC)C(=O)N2CCC[C@H]2C(=O)N2CCC[C@H]2C(=O)N[C@@H](CCC(N)=O)C(=O)N1)[C@@H](C)CC)[C@@H](C)CC)[C@@H](C)O)[C@@H](C)O)C(C)C)C(=O)N[C@@H](C)C(=O)N[C@@H](Cc1c[nH]c2ccccc12)C(=O)N[C@@H](CC(C)C)C(=O)N[C@H](C(=O)N[C@@H](CCCCN)C(=O)NCC(=O)N[C@@H](CCCNC(=N)N)C(=O)NCC(=O)NCC(=O)N[C@@H](CCCCN)C(=O)O)C(C)C` [EC1-D-GLP-1], the “Remaining peak area (%)/elastase” value in series [1] (setting [7]) is listed as 24.2 ± 0.6%. Moreover, in series [1] (isolated enzyme elastase), the amount remaining at 0.025 h, 60 μM was 86 ± 5.4%; the fraction remaining at 0.05 h, 60 μM was 81.9 ± 3.9%; the amount remaining at 0.075 h, 60 μM came to 80.3 ± 2%; the amount remaining at 0.1 h, 60 μM stood at 80.1 ± 3.4%. For the same compound, in series [1] (isolated enzyme elastase), the fraction remaining at 0.15 h, 60 μM was determined as 76.2 ± 1.6%; the share remaining at 0.25 h, 60 μM came to 70.4 ± 4.5%; the amount remaining at 0.5 h, 60 μM is 40.9 ± 1.1%; the amount remaining at 1 h, 60 μM is about 20%. In addition, in series [2], the “Remaining peak area (%)/human serum” value is given as 100.0 ± 0.0%; the share remaining at 0.5 h, 0.03 mM came out at 72.8 ± 0.8%; the amount remaining at 2 h, 0.03 mM was 40.8 ± 4.3%; the amount remaining at 4 h, 0.03 mM was found to be 23.4 ± 1.9%. For the same compound, in series [2], the amount remaining at 8 h, 0.03 mM turned out to be 11.7 ± 2% and the share remaining at 12 h, 0.03 mM came to 3.4 ± 0.4%. In addition, in series [3], the “Remaining peak area (%)/DPP-IV” value worked out at 100.0 ± 0.0%; the fraction remaining at 0.5 h, 25 μM was 101 ± 1.7%; the fraction remaining at 2 h, 25 μM is 99.6 ± 0.6%; the share remaining at 4 h, 25 μM amounted to 104.5 ± 0.3%. Moreover, in series [3], the amount remaining at 8 h, 25 μM stood at 97.4 ± 4.2% and the fraction remaining at 12 h, 25 μM was found to be 93.6 ± 4.9%.

Turning to `CC[C@H](C)[C@H](NC(=O)[C@H](Cc1ccccc1)NC(=O)[C@H](CCC(=O)O)NC(=O)[C@H](CCCCN)NC(=O)[C@H](C)NC(=O)[C@H](C)NC(=O)[C@H](CCC(N)=O)NC(=O)CNC(=O)[C@H](CCC(=O)O)NC(=O)[C@H](CC(C)C)NC(=O)[C@H](Cc1ccc(O)cc1)NC(=O)[C@H](CO)NC(=O)[C@H](CO)NC(=O)[C@@H](NC(=O)[C@H](CC(=O)O)NC(=O)[C@H](CO)NC(=O)[C@@H](NC(=O)[C@H](Cc1ccccc1)NC(=O)[C@@H](NC(=O)CNC(=O)[C@H](CCC(=O)O)NC(=O)[C@H](C)NC(=O)[C@@H](N)Cc1c[nH]cn1)[C@@H](C)O)[C@@H](C)O)C(C)C)C(=O)N[C@@H](C)C(=O)N[C@@H](Cc1c[nH]c2ccccc12)C(=O)N[C@@H](CC(C)C)C(=O)N[C@H](C(=O)N[C@@H](CCCCN)C(=O)NCC(=O)N[C@@H](CCCN=C(N)N)C(=O)NCC(=O)O)C(C)C` [GLP-1 (7-37), reference compound], in series [1] (30.0 min, peptide 60 μM, elastase 10 ng/μL, 37° C.), the “Remaining peak area (%)/elastase” value is “no GLP-1 prototype molecule was detected”. For the same compound, the “stability towards chymotrypsin hydrolysis (in words)” value in series [4] is recorded as “completely degraded”. Also, the “degradation by NEP24.11 (in words)” value in series [5] is “almost completely degraded”.

For the compound “PCSK9_13: Pep2-8 analogue of Table 23 (GTNEALDNNCGRATKSIPPICFTVFTS; disulfide 10-21 (inferred))”, the “Inhibitory rate on the interaction of PCSK9-LDLR” value in series [6] was determined as 15.8 ± 10.1%.
